From ChEMBL document CHEMBL1147786, “Synthesis and evaluation of a mechanism-based inhibitor of a 3-deoxy-D-arabino heptulosonate 7-phosphate synthase” (Bioorg Med Chem Lett, 2006) come the findings set out here.

This assay can be described thus: Inhibition of Escherichia coli DAH7P synthase.

The term IC50 denotes the concentration that inhibits the measured activity by half. Low readings indicate higher potency, high ones lower potency. Consider `O=C(O)CN(C[C@H](O)[C@@H](O)[C@@H](O)COP(=O)(O)O)CP(=O)(O)O`, for which the IC50 came to 6.6 µM.
